In the supplement of paper PMC6045584:
± gives the standard deviation of the averaged measurements.

Assays:
[1] = compound: CCn1c(C(=O)N(C2CC2)C2CC2)cc2c3c(ncn3C)c(Nc3cc(C)n(C)n3)nc21; test: surviving fraction relative to DMSO-only wells; higher = less growth inhibition; conditions: exposure time: 5 days
How it was run: (§1)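 Inhibitors at 0.5, 1, 5, 10, 50, 100, 500 and 1000 nM were applied continuously for five days to tumour cell lines seeded in log phase at 250–500 cells per well in 384-well plates 24 hours earlier. Viability was measured by CellTiter-Glo luminescence and expressed as surviving fraction relative to the median of DMSO-only wells. Luminescence was taken after 10 minutes at room temperature.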

FORETINIB = compound: COc1cc2c(Oc3ccc(NC(=O)C4(C(=O)Nc5ccc(F)cc5)CC4)cc3F)ccnc2cc1OCCCN1CCOCC1 [FORETINIB]; test: as above; conditions: exposure time: 5 days
How it was run: as §1

Test System	surviving fraction ([1]; 0.5 nM)	surviving fraction ([1]; 1 nM)	surviving fraction ([1]; 5 nM)	surviving fraction ([1]; 10 nM)	surviving fraction ([1]; 50 nM)	surviving fraction ([1]; 100 nM)	surviving fraction ([1]; 500 nM)	surviving fraction ([1]; 1000 nM)	surviving fraction (FORETINIB; 0.5 nM)	surviving fraction (FORETINIB; 1 nM)	surviving fraction (FORETINIB; 5 nM)	surviving fraction (FORETINIB; 10 nM)	surviving fraction (FORETINIB; 50 nM)	surviving fraction (FORETINIB; 100 nM)	surviving fraction (FORETINIB; 500 nM)	surviving fraction (FORETINIB; 1000 nM)
LNCAP PROSTATE	0.985 ± 0.1	0.852 ± 0.067	0.908 ± 0.19	0.861 ± 0.12	0.969 ± 0.032	0.915 ± 0.013	0.802 ± 0.03	0.806 ± 0.067	1.04 ± 0.022	1.02 ± 0.046	0.968 ± 0.075	1.01 ± 0.1	0.997 ± 0.074	1.04 ± 0.039	0.261 ± 0.03	0.189 ± 0.028
MCF7 BREAST	0.815 ± 0.049	0.841 ± 0.028	0.844 ± 0.025	0.828 ± 0.03	0.913 ± 0.048	0.862 ± 0.026	0.889 ± 0.065	0.854 ± 0.039	0.938 ± 0.026	0.958 ± 0.056	0.972 ± 0.031	0.993 ± 0.057	0.908 ± 0.052	0.959 ± 0.0097	0.669 ± 0.055	0.701 ± 0.066
MDAMB134 BREAST	1.16 ± 0.2	1.07 ± 0.086	1.15 ± 0.23	0.87 ± 0.014	1.04 ± 0.14	0.986 ± 0.14	0.907 ± 0.0014	0.976 ± 0.025	0.888 ± 0.12	1.41 ± 0.042	0.916 ± 0.06	1.37 ± 0.026	0.86 ± 0.16	1.17 ± 0.32	0.939 ± 0.14	0.886 ± 0.033
MDAMB157 BREAST	0.935 ± 0.14	0.923 ± 0.06	0.93 ± 0.042	0.935 ± 0.071	0.836 ± 0.059	0.89 ± 0.068	0.837 ± 0.059	0.829 ± 0.053	0.967 ± 0.045	0.987 ± 0.035	1.1 ± 0.095	0.975 ± 0.0044	0.971 ± 0.074	0.934 ± 0.081	0.537 ± 0.085	0.231 ± 0.02
MDAMB231 BREAST	0.965 ± 0.026	0.9749 ± 0.0034	0.975 ± 0.038	1.01 ± 0.011	1.01 ± 0.02	1.02 ± 0.014	0.926 ± 0.02	0.9 ± 0.025	0.974 ± 0.018	0.985 ± 0.013	0.998 ± 0.017	1 ± 0.03	0.971 ± 0.0077	0.9367 ± 0.0039	0.489 ± 0.0095	0.449 ± 0.0084
MDAMB361 BREAST	0.838 ± 0.094	0.87 ± 0.039	0.829 ± 0.083	0.812 ± 0.049	0.867 ± 0.055	0.8863 ± 0.0064	0.93 ± 0.083	0.842 ± 0.038	0.794 ± 0.035	0.877 ± 0.15	0.803 ± 0.05	1.18 ± 0.11	0.9 ± 0.15	0.798 ± 0.021	0.918 ± 0.1	0.918 ± 0.073
